From patent US20230322815A1, “NOVEL COMPOUNDS AND THERAPEUTIC USES THEREOF” (University of Huddersfield, priority 2020, published 2023)
Entries after “also recorded” stand apart in the source; their conditions may differ.

Tests used:
[1] = test system: recombinant AMPK (AMPKα p-T172); experiment: Western blot of purified recombinant kinase after exposure to complex; format: biochemical, human; settings: 50 μM complex, 4 hours, in the presence of ATP
Method: FIG. 10. Western blot analysis of purified recombinant Src and AMPK following exposure to [L2Zn3]^6+ and [L2Cu3]^6+. Purified enzymes were incubated with complexes (50 μM) for 4 hours in the presence of ATP prior to analysis.
Protein lysates and recombinant proteins were resolved on 15% SDS polyacrylamide gels. Proteins were electroblotted onto nitrocellulose membrane by wet transfer in 1×Tris Glycine buffer (Biorad) at 35 mA overnight at room temperature (Allison et al., 2014). After blocking of membranes, these were incubated with primary antibody overnight at 4° C. before addition of rabbit or mouse secondary antibody (HRP-conjugated) for 1 h at room temperature and development of blots by enhanced chemiluminescence. […] Quantification of signals was performed by densitometry using Image J software.
To investigate these hypotheses further, regulatory phospho-amino acids of two key kinases identified by the kinase screen, AMPK and Src, were analysed following incubation of the recombinant kinases with Zn^2+ or Cu^2+ complexes.

H460 tumors = experiment: Chick embryo chorioallantoic membrane (CAM) assay, in ovo efficacy; format: in vivo, human tumor cells on chick embryo CAM; settings: for doses giving statistically significant regression of tumor growth (mean tumor weight at E18) / doses giving reduction of tumor growth comparable to SoC: L2Zn3 54, 108, 216 μM, L2Cu3 42, 84, 168 μM; for doses giving statistically significant regression of tumor growth (mean tumor weight at E18): 100 μl on tumor graft at E11, E13, E15, E17; for doses giving reduction of tumor growth comparable to SoC: SoC paclitaxel; for H460 metastatic load in the lower CAM (qPCR for Alu sequences): all three tested doses
Method: FIG. 21. Activity of [L2Cu3]^6+ and [L2Zn3]^6+ against primary H460 tumors. The results presented represent the mean tumour weight±SEM following treatment at 3 different doses of [L2Cu3]^6+ and [L2Zn3]^6+: L2Zn3 [1]=54 μM, L2Zn3 [2]=108 μM, L2Zn3 [3]=216 μM; L2Cu3 [1]=42 μM, L2Cu3[2]=84 μM, L2Cu3[3]=168 μM. SoC paclitaxel. Statistical analysis by one way ANOVA (*): 0.05≥p value >0.01; (**): 0.01≥p value >0.001; (***): 0.001≥p value; (****): 0.0001≥p value. Number per experimental group n=10-13.
FIG. 22. Evaluation of the effects of [L2Cu3]^6+ and [L2Zn3]^6+ on primary H460 metastasis to the lower CAM. Relative ALU expression (relative to chicken GAPDH) as a quantitive marker of metastasis of human cells to the lower CAM. L2Zn3 [1]=54 μM, L2Zn3 [2]=108 μM, L2Zn3 [3]=216 μM; L2Cu3 [1]=42 μM, L2Cu3[2]=84 μM, L2Cu3[3]=168 μM. SoC paclitaxel. Relative expression ±SEM. Statistical analysis by one way ANOVA (*): 0.05≥p value >0.01; (**): 0.01≥p value >0.001; (***): 0.001≥p value; (****): 0.0001≥p value. Number per experimental group n=7-8.
(§1) [L2Cu3]^6+ and [L2Zn3]^6+ were evaluated at three different doses for in ovo anti-cancer activity, toxicity and anti-metastatic activity against tumors initiated from three different human cancer cell line models (H460, HT29, HCT116), in the chick embryo chorioallantoic membrane (CAM) assay.
(§2) Each compound was provided to the contract research organisation (CRO) Inovotion (La Tronche, France) conducting the in ovo study, as a powder pre-weighed in single vials (2 equivalents of ligand, 3 equivalents of metal; and stored at room temperature). Before use, this was then dissolved in DMSO to 50 mM to generate a stock solution and further freshly diluted in RPM11640 or McCoys aqueous cell culture media for administration.
A standard of care (SoC) drug for the particular tumour type was tested concurrently as a comparative control for in vivo efficacy and toxicity evaluation. A solvent control served as a negative control for both SoC and experimental compounds.
10^6 tumor cells (H460, HT29 or HCT116) were grafted onto the upper chorioallantoic membrane (CAM) of the developing chick embryo on embryonic day 9 (E9). Access to the upper CAM was through a small hole drilled through the eggshell of fertilized White Leghorn eggs (into the air sac) on E9 (15 eggs per experimental group).
100 μl of freshly prepared experimental compound, vehicle control or standard-of-care (SoC) drug at their working concentrations were pipetted onto the tumor graft at E11, E13, E15 and E17. On day E18, the upper CAM (with tumor) was removed, washed by PBS buffer and then directly transferred in PFA (fixation for 48 hrs). After that, tumors were carefully cut away from normal CAM tissue and weighed.
(§3) On day E18, a 1 cm^2 portion of the lower CAM was collected (n=8 per group), stored at −20° C. and later processed to extract DNA. Samples were analysed for human genomic DNA (qPCR for Alu sequences) as a quantitative marker of tumor metastasis to the lower CAM.

HCT116 tumors = experiment: as above; format: in vivo, human tumor cells on chick embryo CAM; settings: for doses giving statistically significant regression of tumor growth (mean tumor weight at E18): L2Zn3 70.5, 141, 282 μM, L2Cu3 75, 150, 300 μM
Method: FIG. 24. Activity of [L2Cu3]^6+ and [L2Zn3]^6+ against primary HCT116 tumors. The results presented represent the mean tumour weight ±SEM following treatment at 3 different doses of [L2Cu3]^6+ and [L2Zn3]^6+: L2Zn3 [1]=70.5 μM, L2Zn3 [2]=141 μM, L2Zn3 [3]=282 μM; L2Cu3 [1]=75 μM, L2Cu3[2]=150 μM, L2Cu3[3]=300 μM. SoC doxorubicin. Statistical analysis by one way ANOVA (*): 0.05≥p value >0.01; (**): 0.01≥p value >0.001; (***): 0.001≥p value; (****): 0.0001≥p value. Number per experimental group n=12-15.
FIG. 25. Evaluation of the effects of [L2Cu3]^6+ and [L2Zn3]^6+ on primary HCT116 metastasis to the lower CAM. Relative ALU expression (relative to chicken GAPDH) as a quantitive marker of metastasis of human cells to the lower CAM. Relative expression ±SEM. L2Zn3 [1]=70.5 μM, L2Zn3 [2]=141 μM, L2Zn3 [3]=282 μM; L2Cu3 [1]=75 μM, L2Cu3[2]=150 μM, L2Cu3[3]=300 μM. SoC doxorubicin. Number per experimental group n=7-8.
as §1, §2
A standard of care (SoC) drug for the particular tumour type was tested concurrently as a comparative control for in vivo efficacy and toxicity evaluation. […]
as §3

SMILES	AMPKα p-T172 levels by immunoblotting [1]	doses giving statistically significant regression of tumor growth (mean tumor weight at E18) (H460 tumors)	doses giving reduction of tumor growth comparable to SoC (H460 tumors)	H460 metastatic load in the lower CAM (qPCR for Alu sequences) (H460 tumors)	doses giving statistically significant regression of tumor growth (mean tumor weight at E18) (HCT116 tumors)	HCT116 metastatic load in the lower CAM (qPCR for Alu sequences) (HCT116 tumors; all three doses, comparable to SoC doxorubicin)
[Zn+2].[Zn+2].[Zn+2].c1ccc(-c2csc(NCCN(CCNc3nc(-c4ccccn4)cs3)CCNc3nc(-c4ccccn4)cs3)n2)nc1.c1ccc(-c2csc(NCCN(CCNc3nc(-c4ccccn4)cs3)CCNc3nc(-c4ccccn4)cs3)n2)nc1 [[L2Zn3]^6+]	significantly reduced p-T172 levels	all three tested doses	all three tested doses	Statistically significant decreases	the highest two doses tested	Decreases in HCT116 metastatic load; also recorded: strong regression tendency
[Cu+2].[Cu+2].[Cu+2].c1ccc(-c2csc(NCCN(CCNc3nc(-c4ccccn4)cs3)CCNc3nc(-c4ccccn4)cs3)n2)nc1.c1ccc(-c2csc(NCCN(CCNc3nc(-c4ccccn4)cs3)CCNc3nc(-c4ccccn4)cs3)n2)nc1 [[L2Cu3]^6+]	significantly reduced p-T172 levels	the two highest tested doses	the highest dose	no statistically significant metastatic regression	all three tested doses	–
